The values that follow come from US12257284B2, “Lantibiotics, lantibiotic-producing bacteria, compositions and methods of production and use thereof” (MEMORIAL SLOAN-KETTERING CANCER CENTER, priority 2017, dated 2025).

The test system of this assay is VRE. The assay can be described thus: VRE cultured in filtered culture supernatants or size fractions, VRE CFU quantitated. Type of assay: cell-based, vancomycin-resistant Enterococcus. The note with it: VRE 6 hours. As for the experimental part: 10^7 CFU/mL B. producta or C. bolteae±10^3 CFU/mL VRE were cultured in BHIS for 6 hours anaerobically at 37° C. The culture supernatants were filtered through a 0.22 μm filter. 10^3 CFU/mL VRE were cultured in the filtered culture supernatants for 2, 6, or 24 hours anaerobically at 37° C. […] 10^7 CFU/mL B. producta, C. bolteae, P. distasonis, or B. sartorii were cultured in BHI overnight (at least 8 hours) anaerobically at 37° C. The culture supernatants were filtered through a 0.22 μm filter and diluted 1:2 in fresh BHIS. 10^3 CFU/mL VRE were cultured in the filtered culture supernatants for 2, 6, or 24 hours anaerobically at 37° C.
10^7 CFU/mL B. producta was cultured for 0, 6, 24 hours in BHIS anaerobically at 37° C. Culture growth was verified by quantitating B. producta CFU at 6, 24, 48, and 72 hours. […] The culture supernatant at 0, 6, and 24 hours was filtered through a 0.22 μm filter, then concentrated by ultrafiltration with a molecular weight cut off greater than 100 kDa. The concentrated culture supernatant was then diluted to the original volume with fresh BHIS culture medium. Concentrated/diluted medium was inoculated with 10^3 CFU/mL VRE and cultured anaerobically at 37° C. for 6, 24, 48 hours.
10^7 CFU/mL B. producta were cultured for 24 hours anaerobically at 37° C. in BHIS. […]

As for nisin, for the setting “filtered supernatant, nisin extract powder 1 mg per 1 mL medium, FIG. 31 left panel”, the “VRE growth (VRE CFU) in filtered culture supernatant or nisin medium” value is “inhibited VRE”. Besides, the “VRE growth (VRE CFU) with greater than 100 kDa concentrated samples” value (samples concentrated by ultrafiltration, cut off greater than 100 kDa, diluted to original volume, FIG. 31 right panel) was “inhibited VRE”.
